Read-outs that look alike come from different tables or passages of the source.
How the values were obtained:
Assay type in all cases: cell-based
CDK2 = target: T1, CDK2 (Homo sapiens, UniProt P24941); experiment: HiBit Assay Protocol for CDK2 (HIBIT protein quantification, degradation); details: HEK293-CDK2-Hibit cells, compound treatment for 6 hours; for DC50: ABS DC50
T1 construct: host or cells: HEK293-CDK2-Hibit
Procedure, shortened: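 HEK293 cells expressing HiBiT-tagged CDK2 were seeded overnight, then treated 6 h with a 3-fold, 10-point compound dilution series. CDK2 levels were read as luminescence after lytic HiBiT/LgBiT detection, normalised to DMSO-only and medium-only controls, and DC50 derived by curve fitting.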

CDK9 = target: T2, CDK9 (Homo sapiens, UniProt P50750); experiment: HiBit Assay Protocol for CDK9 (HIBIT protein quantification, degradation); details: HEK293-CDK9-Hibit cells, compound treatment for 6 hours; for Dmax: read-out: CDK9 HIBIT Protein Quantification Maximum; for DC50: ABS DC50
T2 construct: host or cells: HEK293-CDK9-Hibit
T2 sequence (P50750 whole entry): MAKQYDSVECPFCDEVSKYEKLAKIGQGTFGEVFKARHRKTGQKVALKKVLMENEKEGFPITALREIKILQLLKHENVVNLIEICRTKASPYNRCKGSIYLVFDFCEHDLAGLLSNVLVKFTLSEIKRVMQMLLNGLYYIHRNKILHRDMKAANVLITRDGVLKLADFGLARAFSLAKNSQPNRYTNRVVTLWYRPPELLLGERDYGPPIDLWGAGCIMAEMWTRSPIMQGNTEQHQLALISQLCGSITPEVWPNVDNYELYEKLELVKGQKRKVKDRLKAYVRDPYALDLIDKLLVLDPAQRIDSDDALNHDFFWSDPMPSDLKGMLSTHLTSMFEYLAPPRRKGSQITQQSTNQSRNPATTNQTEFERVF
Procedure, shortened: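 HEK293 cells carrying HiBiT-tagged CDK9 treated 6 h with compounds in a 3-fold, 10-point dilution series. CDK9 level read by lytic Nano-Glo HiBiT/LgBiT luminescence and normalized to 0.1% DMSO (high) and medium-only (low) controls. DC50 from curve fitting.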

CCNE1 [1] = target: T3, CCNE1 (Homo sapiens, UniProt P24864); experiment: HiBit Assay Protocol for CCNE1 (HIBIT protein quantification, degradation); details: HEK293-CCNE1-Hibit cells, compound treatment for 6 hours
T3 construct: host or cells: HEK293-CCNE1-Hibit
T3 sequence (P24864 whole entry): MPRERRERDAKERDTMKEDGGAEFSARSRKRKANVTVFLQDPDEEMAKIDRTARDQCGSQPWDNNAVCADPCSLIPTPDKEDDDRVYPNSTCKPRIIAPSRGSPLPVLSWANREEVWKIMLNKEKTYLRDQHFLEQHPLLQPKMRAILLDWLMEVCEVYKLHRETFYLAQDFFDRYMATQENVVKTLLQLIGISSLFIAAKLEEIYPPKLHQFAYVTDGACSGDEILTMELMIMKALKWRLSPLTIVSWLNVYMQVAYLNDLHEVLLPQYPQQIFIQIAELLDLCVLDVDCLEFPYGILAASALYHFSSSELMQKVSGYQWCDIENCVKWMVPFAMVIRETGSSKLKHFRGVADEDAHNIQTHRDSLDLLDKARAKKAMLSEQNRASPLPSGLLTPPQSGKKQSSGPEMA
Procedure, shortened: (§1)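 HEK293 cells expressing HiBiT-tagged CCNE1 were seeded overnight, then treated 6 h with a 3-fold, 10-point compound dilution series. HiBiT levels were read by lytic LgBiT luminescence and normalised to DMSO-only (high) and medium-only (low) controls. DC50 was derived by curve fitting.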

CCNE1 [2] = target: T4, CCNE1 (Homo sapiens, UniProt P24864+P24941); experiment: as above; details: HEK293-CCNE1-Hibit cells, compound treatment for 6 hours, ABS DC50
T4 construct: host or cells: HEK293-CCNE1-Hibit
T4 sequence (P24864 whole entry, one chain of several): as the sequence (P24864 whole entry) above
Procedure, shortened: as §1

| SMILES | CDK2 HIBIT Protein Quantification Maximum (CDK2) | DC50 (CDK2) | Dmax (CDK9) | CCNE1 HIBIT Protein Quantification Maximum (CCNE1 [1]) | DC50 (CCNE1 [2]) | DC50 (CDK9) | Dmax (CDK9; 6 h) |
| --- | --- | --- | --- | --- | --- | --- | --- |
| O=C1CCC(N2Cc3cc(CN4CC(Oc5cccc(S(=O)(=O)c6ccc(Nc7ncc8c(n7)N([C@@H]7CCC[C@@H](O)C7)C(=O)C87CC7)cc6)c5)C4)ccc3C2=O)C(=O)N1 (stereo partly drawn) [Compound 125, 3-[5-({3-[3-(4-{7′-[(1R,3R)-3-hydroxycyclohexyl]-6′-oxospiro[cyclopropane-1,5′-pyrrolo [2,3-d]pyrimidin]-2′-ylamino}benzenesulfonyl)phenoxy]azetidin-1-yl}methyl)-1-oxo-3H-isoindol-2-yl]piperidine-2,6-dione] | 54% | 4 nM | 13% | 81% | 2.35 nM | – | – |
| O=C1CCC(N2Cc3cc(N4CCN(CC5CCN(c6cccc(S(=O)(=O)c7ccc(Nc8ncc9c(n8)N([C@@H]8CCC[C@@H](O)C8)C(=O)C98CC8)cc7)c6)CC5)CC4)ccc3C2=O)C(=O)N1 (stereo partly drawn) [Compound 126, 3-{5-[4-({1-[3-(4-{7′-[(1R,3R)-3-hydroxycyclohexyl]-6′-oxospiro [cyclopropane-1,5′-pyrrolo[2,3-d]pyrimidin]-2′-ylamino}benzenesulfonyl)phenyl]piperidin-4-yl}methyl)piperazin-1-yl]-1-oxo-3H-isoindol-2-yl}piperidine-2,6-dione] | 66% | 6 nM | 84% | 71% | 29.6 nM | 33.4 nM | – |
| CN(CCCN1CCC(c2cccc3c2n(C)c(=O)n3C2CCC(=O)NC2=O)CC1)S(=O)(=O)N1CCC(Nc2ncc3c(n2)N([C@@H]2CCC[C@@H](O)C2)C(=O)C32CC2)CC1 (stereo partly drawn) [Compound 131, N-(3-{4-[1-(2,6-Dioxopiperidin-3-yl)-3-methyl-2-oxo-1,3-benzodiazol-4-yl]piperidin-1-yl}propyl)-4-{7′-[(1R,3R)-3-hydroxycyclohexyl]-6′-oxospiro[cyclopropane-1,5′-pyrrolo[2,3-d]pyrimidin]-2′-ylamino}-N-methylpiperidine-1-sulfonamide] | 83% | 21.9 nM | – | 63% | 19.9 nM | 69.2 nM | 56% |
| C[C@H](c1cccc(S(=O)(=O)N2CCC(Nc3ncc4c(n3)N([C@@H]3CCC[C@@H](O)C3)C(=O)C43CC3)CC2)c1)N1CCC(c2ccc3c(N4CCC(=O)NC4=O)nn(C)c3c2)CC1 [Compound 151, 1-(6-{1-[(1R)-1-[3-(4-{7′-[(1R,3R)-3-hydroxycyclohexyl]-6′-oxospiro[cyclopropane-1,5′-pyrrolo[2,3-d]pyrimidin]-2′-ylamino}piperidin-1-ylsulfonyl)phenyl]ethyl]piperidin-4-yl}-1-methylindazol-3-yl)-1,3-diazinane-2,4-dione] | 80% | 3.31 nM | – | 69% | 78.5 nM | – | 3% |
| Cn1nc(N2CCC(=O)NC2=O)c2ccc(C3CCN(Cc4cccc(S(=O)(=O)N5CC[C@@H](Nc6ncc7c(n6)N([C@@H]6CCC[C@@H](O)C6)C(=O)C76CC6)[C@H](F)C5)c4)CC3)cc21 [Compound 158] | 80% | 2.64 nM | – | 56% | 5.96 nM | – | 13% |
| Cc1c(CN2CCC(c3ccc4c(N5CCC(=O)NC5=O)nn(C)c4c3)CC2)cccc1S(=O)(=O)N1CCC(Nc2ncc3c(n2)N([C@@H]2CCC[C@@H](O)C2)C(=O)C32CC2)CC1 [Compound 159, 1-[6-(1-{[3-(4-{7′-[(1R,3R)-3-Hydroxycyclohexyl]-6′-oxospiro [cyclopropane-1,5′-pyrrolo[2,3-d]pyrimidin]-2′-ylamino}piperidin-1-ylsulfonyl)-2-methylphenyl]methyl}piperidin-4-yl)-1-methylindazol-3-yl]-1,3-diazinane-2,4-dione] | 68% | 2.83 nM | – | 54% | 5.99 nM | – | 49% |
| C[C@@H](C1CC1)N1C(=O)C2(CC2)c2cnc(NC3CCN(S(=O)(=O)c4cccc(CN5CCC(c6ccc7c(N8CCC(=O)NC8=O)nn(C)c7c6)CC5)c4)CC3)nc21 [Compound 164, 1-[6-(1-{[3-(4-{7′-[(1S)-1-Cyclopropylethyl]-6′-oxospiro[cyclopropane-1,5′-pyrrolo[2,3-d]pyrimidin]-2′-ylamino}piperidin-1-ylsulfonyl)phenyl]methyl}piperidin-4-yl)-1-methylindazol-3-yl]-1,3-diazinane-2,4-dione] | 85% | 2.63 nM | – | 54% | 6.18 nM | – | 12% |
| CC1CN(Cc2cccc(S(=O)(=O)N3CCC(Nc4ncc5c(n4)N([C@@H]4CCC[C@@H](O)C4)C(=O)C54CC4)CC3)c2)CCC1c1ccc2c(N3CCC(=O)NC3=O)nn(C)c2c1 (stereo partly drawn) [Compound 182, 1-[6-(1-{[3-(4-{7′-[(1R,3R)-3-Hydroxycyclohexyl]-6′-oxospiro[cyclopropane-1,5′-pyrrolo[2,3-d]pyrimidin]-2′-ylamino}piperidin-1-ylsulfonyl)phenyl]methyl}-3-methylpiperidin-4-yl)-1-methylindazol-3-yl]-1,3-diazinane-2,4-dione] | 82% | 4.8 nM | – | 52% | 8.09 nM | – | 46% |

— patent US20260070917A1, “CYCLIN DEPENDENT KINASE DEGRADERS AND METHODS OF USE THEREOF” (Differentiated Therapeutics Inc, priority 2023, published 2026)
